In PubChem BioAssay AID248 (DTP/NCI, 2004):
Several values for one entry are separate records, joined by “and”; a condition that tells them apart may be missing. Equal values may be shown once. Inconclusive results and toxic doses are left out.

Test system: L1210 leukemia ip in BDF1 mice, survival T/C
Assay: NCI In Vivo Anticancer Drug Screen. Data for tumor model L1210 Leukemia (intraperitoneal) in B6D2F1 (BDF1) mice
Conditions: endpoint: mean survival time, higher = longer survival
How it was run: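 Mice bearing the transplanted tumor received compound or vehicle. Survival of the treated group was divided by that of the vehicle-treated control group to give the ratio.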

[1] = dose: 100.0 mg/kg/injection, schedule: Q01DX009 (ip), vehicle: Klucel (hydroxypropylcellulose) (HPC)
[2] = dose: 200.0 mg/kg/injection, schedule: Q01DX009 (ip), vehicle: Klucel (hydroxypropylcellulose) (HPC)

Q: For `COc1cc(Br)c(CC2c3cc(OC)c(OC)cc3CC[N+]2(C)C)cc1OC` (stereo unspecified), which T/C (dose: 100.0 mg/kg/injection, schedule: Q01DX001 (ip), vehicle: water) is on record?
A: 100 % of control

Q: What about the T/C (dose: 100.0 mg/kg/injection, schedule: Q01DX009 (ip), vehicle: water) of the same compound?
A: 101 % of control

Q: And the T/C (dose: 100.0 mg/kg/injection, schedule: Q04DX003 (ip), vehicle: water)?
A: 100 % of control

Q: And the T/C (dose: 200.0 mg/kg/injection, schedule: Q01DX001 (ip), vehicle: water)?
A: 102 % of control

Q: What about the T/C (dose: 200.0 mg/kg/injection, schedule: Q01DX009 (ip), vehicle: water) of the same compound?
A: 87 % of control

Q: What about the T/C (dose: 200.0 mg/kg/injection, schedule: Q04DX003 (ip), vehicle: water) of the same compound?
A: 97 % of control

Q: What about the T/C (dose: 400.0 mg/kg/injection, schedule: Q01DX001 (ip), vehicle: water) of the same compound?
A: 100 % of control

Q: What about the T/C (dose: 400.0 mg/kg/injection, schedule: Q04DX003 (ip), vehicle: water) of the same compound?
A: 91 % of control

Q: With `NC(=O)c1cc(N2CC2)c([N+](=O)[O-])cc1[N+](=O)[O-]` as the compound, how does the T/C (dose: 5.0 mg/kg/injection, schedule: Q01DX001 (ip), vehicle: other) read?
A: 110 % of control

Q: And the T/C (dose: 10.0 mg/kg/injection, schedule: Q01DX001 (ip), vehicle: other)?
A: 98 % of control

Q: And the T/C (dose: 10.0 mg/kg/injection, schedule: Q01DX009 (ip), vehicle: saline)?
A: 105 % of control

Q: And the T/C (dose: 20.0 mg/kg/injection, schedule: Q01DX001 (ip), vehicle: other)?
A: 101 % of control

Q: And the T/C (dose: 20.0 mg/kg/injection, schedule: Q01DX009 (ip), vehicle: saline)?
A: 105 % of control

Q: And the T/C (dose: 40.0 mg/kg/injection, schedule: Q01DX001 (ip), vehicle: other)?
A: 106 % of control

Q: What about the T/C (dose: 40.0 mg/kg/injection, schedule: Q01DX009 (ip), vehicle: saline) of the same compound?
A: 113 % of control

Q: What about the T/C (dose: 50.0 mg/kg/injection, schedule: Q01DX001 (ip), vehicle: other) of the same compound?
A: 94 % of control

Q: What about the T/C (dose: 80.0 mg/kg/injection, schedule: Q01DX001 (ip), vehicle: other) of the same compound?
A: 97 % of control

Q: What about the T/C (dose: 100.0 mg/kg/injection, schedule: Q01DX001 (ip), vehicle: other) of the same compound?
A: 96 % of control

Q: Which T/C (dose: 6.25 mg/kg/injection, schedule: Q01DX009 (ip), vehicle: saline) does the source give for `CC1=[N+](C)C(C)(C)CC(C)O1` (stereo unspecified) here?
A: 105 % of control

Q: And the T/C (dose: 6.25 mg/kg/injection, schedule: Q04DX003 (ip), vehicle: saline)?
A: 94 % of control

Q: What about the T/C (dose: 12.5 mg/kg/injection, schedule: Q01DX009 (ip), vehicle: saline) of the same compound?
A: 96 % of control

Q: And the T/C (dose: 12.5 mg/kg/injection, schedule: Q04DX003 (ip), vehicle: saline)?
A: 105 % of control

Q: What about the T/C (dose: 25.0 mg/kg/injection, schedule: Q01DX009 (ip), vehicle: saline) of the same compound?
A: 105 % of control

Q: What about the T/C (dose: 25.0 mg/kg/injection, schedule: Q04DX003 (ip), vehicle: saline) of the same compound?
A: 96 % of control

Q: For `CCCCCCCCCCCCOc1cccc(OCCCCCCCCCCCC)c1`, which T/C (dose: 100.0 mg/kg/injection, schedule: Q01DX001 (ip), vehicle: Klucel (hydroxypropylcellulose) (HPC)) is on record?
A: 92 % of control

Q: What about the T/C (dose: 200.0 mg/kg/injection, schedule: Q01DX001 (ip), vehicle: Klucel (hydroxypropylcellulose) (HPC)) of the same compound?
A: 87 % of control

Q: What about the T/C (dose: 400.0 mg/kg/injection, schedule: Q01DX001 (ip), vehicle: Klucel (hydroxypropylcellulose) (HPC)) of the same compound?
A: 87 % of control

Q: What does the source list for `CC(=O)Nc1ccc2c(c1)[nH]c(=O)c1ccccc12`?
A: T/C (dose: 100.0 mg/kg/injection, schedule: Q01DX001 (ip), vehicle: carboxymethylcellulose (CMC)): 96 % of control; T/C (dose: 200.0 mg/kg/injection, schedule: Q01DX001 (ip), vehicle: carboxymethylcellulose (CMC)): 93 % of control; T/C (dose: 400.0 mg/kg/injection, schedule: Q01DX001 (ip), vehicle: carboxymethylcellulose (CMC)): 96 % of control

Q: `c1c[nH]c(Cc2ccc3ccccc3c2)c1` was tested. Which T/C (dose: 100.0 mg/kg/injection, schedule: Q01DX009 (ip), vehicle: other) did it give?
A: 110 % of control

Q: What about the T/C (dose: 100.0 mg/kg/injection, schedule: Q04DX003 (ip), vehicle: other) of the same compound?
A: 102 % of control

Q: What about the T/C (dose: 200.0 mg/kg/injection, schedule: Q01DX009 (ip), vehicle: other) of the same compound?
A: 97 % of control

Q: And the T/C (dose: 200.0 mg/kg/injection, schedule: Q04DX003 (ip), vehicle: other)?
A: 101 % of control

Q: What about the T/C (dose: 400.0 mg/kg/injection, schedule: Q01DX009 (ip), vehicle: other) of the same compound?
A: 110 % of control

Q: What about the T/C (dose: 400.0 mg/kg/injection, schedule: Q04DX003 (ip), vehicle: other) of the same compound?
A: 102 % of control

Q: Which results are given for `c1ccc(N/N=C2/CSCc3ccccc32)cc1`?
A: T/C (dose: 100.0 mg/kg/injection, schedule: Q01DX001 (ip), vehicle: saline with Tween-80): 97 % of control; T/C (dose: 200.0 mg/kg/injection, schedule: Q01DX001 (ip), vehicle: saline with Tween-80): 95 % of control; T/C (dose: 400.0 mg/kg/injection, schedule: Q01DX001 (ip), vehicle: saline with Tween-80): 106 % of control

Q: With `ClCCN(CCCl)CCCN1c2ccccc2Sc2ccccc21` as the compound, how does the T/C (dose: 6.25 mg/kg/injection, schedule: Q01DX009 (ip), vehicle: saline with Tween-80) read?
A: 109 % of control

Q: And the T/C (dose: 12.5 mg/kg/injection, schedule: Q01DX009 (ip), vehicle: saline with Tween-80)?
A: 115 % of control

Q: And the T/C (dose: 12.5 mg/kg/injection, schedule: Q04DX003 (ip), vehicle: saline with Tween-80)?
A: 97 % of control

Q: And the T/C (dose: 16.0 mg/kg/injection, schedule: Q04DX003 (ip), vehicle: saline with Tween-80)?
A: 114 % of control

Q: And the T/C (dose: 16.0 mg/kg/injection, schedule: Q04DX003 (ip), vehicle: saline)?
A: 100 % of control

Q: And the T/C (dose: 25.0 mg/kg/injection, schedule: Q04DX003 (ip), vehicle: saline with Tween-80)?
A: 97 % of control

Q: And the T/C (dose: 26.0 mg/kg/injection, schedule: Q04DX003 (ip), vehicle: saline)?
A: 107 % of control

Q: And the T/C (dose: 35.0 mg/kg/injection, schedule: Q04DX003 (ip), vehicle: saline with Tween-80)?
A: 90 % of control

Q: And the T/C (dose: 35.0 mg/kg/injection, schedule: Q04DX003 (ip), vehicle: saline)?
A: 103 % of control

Q: What about the T/C (dose: 50.0 mg/kg/injection, schedule: Q04DX003 (ip), vehicle: saline with Tween-80) of the same compound?
A: 121 % of control

Q: How did the T/C (dose: 50.0 mg/kg/injection, schedule: Q01DX009 (ip), vehicle: Klucel (hydroxypropylcellulose) (HPC)) turn out when `O=C(C(c1ccccn1)=P(c1ccccc1)(c1ccccc1)c1ccccc1)c1ccc([N+](=O)[O-])cc1` was run?
A: 88 % of control

Q: And the T/C [1]?
A: 91 % of control

Q: What about the T/C [2] of the same compound?
A: 98 % of control

Q: How did the T/C [1] turn out when `Cc1ccc(S(=O)(=O)Oc2ccccc2)cc1` was run?
A: 96 % of control

Q: And the T/C (dose: 100.0 mg/kg/injection, schedule: Q04DX003 (ip), vehicle: Klucel (hydroxypropylcellulose) (HPC))?
A: 94 % of control

Q: And the T/C [2]?
A: 100 % of control

Q: And the T/C (dose: 200.0 mg/kg/injection, schedule: Q04DX003 (ip), vehicle: Klucel (hydroxypropylcellulose) (HPC))?
A: 94 % of control

Q: What about the T/C (dose: 400.0 mg/kg/injection, schedule: Q01DX009 (ip), vehicle: Klucel (hydroxypropylcellulose) (HPC)) of the same compound?
A: 97 % of control

Q: What about the T/C (dose: 400.0 mg/kg/injection, schedule: Q04DX003 (ip), vehicle: Klucel (hydroxypropylcellulose) (HPC)) of the same compound?
A: 92 % of control

Q: Which T/C (dose: 50.0 mg/kg/injection, schedule: Q01DX001 (ip), vehicle: saline) does the source give for `CCOC(=N)CC(=O)OCC` here?
A: 101 % of control and 110 % of control

Q: What about the T/C (dose: 89.0 mg/kg/injection, schedule: Q01DX001 (ip), vehicle: saline) of the same compound?
A: 101 % of control

Q: What about the T/C (dose: 100.0 mg/kg/injection, schedule: Q01DX001 (ip), vehicle: saline) of the same compound?
A: 104 % of control and 113 % of control

Q: And the T/C (dose: 133.0 mg/kg/injection, schedule: Q01DX001 (ip), vehicle: saline)?
A: 101 % of control

Q: And the T/C (dose: 200.0 mg/kg/injection, schedule: Q01DX001 (ip), vehicle: saline)?
A: 95 % of control and 104 % of control and 231 % of control

Q: What about the T/C (dose: 300.0 mg/kg/injection, schedule: Q01DX001 (ip), vehicle: saline) of the same compound?
A: 98 % of control

Q: And the T/C (dose: 400.0 mg/kg/injection, schedule: Q01DX001 (ip), vehicle: saline)?
A: 95 % of control and 101 % of control

Q: For `CCCCC1CN=C(c2ccc(NC(=O)c3ccc(C(=O)Nc4ccc(C5=NCC(CCCC)CN5)cc4)c(Cl)c3)cc2)NC1` (stereo unspecified), which T/C (dose: 5.0 mg/kg/injection, schedule: Q01DX015 (ip), vehicle: methylcellulose (MC)) is on record?
A: 109 % of control

Q: What about the T/C (dose: 22.5 mg/kg/injection, schedule: Q01DX015 (ip), vehicle: methylcellulose (MC)) of the same compound?
A: 123 % of control

Q: What about the T/C (dose: 45.0 mg/kg/injection, schedule: Q01DX015 (ip), vehicle: methylcellulose (MC)) of the same compound?
A: 111 % of control

Q: What about the T/C (dose: 62.0 mg/kg/injection, schedule: Q01DX015 (ip), vehicle: methylcellulose (MC)) of the same compound?
A: 109 % of control

Q: Which T/C (dose: 3.0 mg/kg/injection, schedule: Q01DX009 (ip), vehicle: Klucel (hydroxypropylcellulose) (HPC)) does the source give for `CCOC(=O)c1c[n]([Hg][n]2cc(C(=O)OCC)c(Nc3ccccc3Br)nc2=O)c(=O)nc1Nc1ccccc1Br` here?
A: 95 % of control

Q: What about the T/C (dose: 6.0 mg/kg/injection, schedule: Q01DX009 (ip), vehicle: Klucel (hydroxypropylcellulose) (HPC)) of the same compound?
A: 93 % of control

Q: And the T/C (dose: 6.25 mg/kg/injection, schedule: Q04DX003 (ip), vehicle: Klucel (hydroxypropylcellulose) (HPC))?
A: 96 % of control

Q: What about the T/C (dose: 12.0 mg/kg/injection, schedule: Q01DX009 (ip), vehicle: Klucel (hydroxypropylcellulose) (HPC)) of the same compound?
A: 96 % of control

Q: And the T/C (dose: 12.5 mg/kg/injection, schedule: Q04DX003 (ip), vehicle: Klucel (hydroxypropylcellulose) (HPC))?
A: 96 % of control and 103 % of control

Q: What about the T/C (dose: 25.0 mg/kg/injection, schedule: Q04DX003 (ip), vehicle: Klucel (hydroxypropylcellulose) (HPC)) of the same compound?
A: 88 % of control

Q: And the T/C (dose: 50.0 mg/kg/injection, schedule: Q04DX003 (ip), vehicle: Klucel (hydroxypropylcellulose) (HPC))?
A: 100 % of control
